The values below are quoted from earlier work in patent publication US4380638A, “Chemical compounds” (Bristol-Myers Company, priority 1981, dated 1983).

The conditions of data set [1]: agranulocytosis.
A further data set relates to peptic ulcer disease. The following applies: Gray et al., Lancet, 1, 8001 (1977).
Data set [2] deals with H2 -receptor.
Data set [3] relates to H2 -receptor. The following applies: man.

As to `CNC(=S)NCCCCc1cnc[nH]1` [Burimamide], the oral absorption result is reported as “poor”.

For `CNC(=NC#N)NCCSCc1[nH]cnc1C` [Cimetidine], the toxicity entry in data set [1] is recorded as “without producing agranulocytosis”. Besides, the “clinical effectiveness in peptic ulcer disease” value in the data set on peptic ulcer disease is “effective therapeutic agent in the treatment of peptic ulcer disease”. Besides, the “H2-antagonist potency/effectiveness relative to another drug” value in the data set on H2 -receptor [2] was “as effective an H2 -antagonist as metiamide”.

`CNC(=S)NCCSCc1[nH]cnc1C` [Metiamide]: the toxicity result in data set [1] is on record as “agranulocytosis”. Moreover, the oral activity result in the data set with H2 -receptor [3] is “orally active in man”. In the data set on H2 -receptor [2], the “H2-antagonist potency/effectiveness relative to another drug” value was “more potent than burimamide”.
